These results are taken from patent US20260224716A1, “PTH ANALOGS FOR THE TREATMENT OF HYPOPARATHYROIDISM” (priority 2020, published 2026).

In one data set the test system is serum calcium. The experiment in a line: Pharmacology in normal mice: serum calcium (Example 6). The following applies: FIG. 5C, 20 or 40 nmol/kg SC, 24 and 48 hours. The class given is in vivo, C57Bl6/J mice. As to the method: Each group of mice was bled immediately before the injection and after 24 and 48 hours. Blood was centrifuges and serum was collected and stored at −20 C. Calcium concentrations were determined used commercially available assays following the manufacturer's instructions.

Data set [1] is described as follows: Cleavage half-life / conversion of PTH prodrugs in PBS pH 7.4, 37° C. by LC-MS. The class given is physicochemical. To be noted: PBS buffer; dipeptide cleavage from PTH prodrug, PBS pH 7.4, 37° C.; read-out: Half life (converted). The procedure, abridged:
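Prodrugs incubated in PBS pH 7.4 at 37 °C, aliquots sampled over time for LC-MS (10–80% acetonitrile/0.1% TFA gradient). Prodrug and drug quantified by relative peak areas; dissociation rate constant from log prodrug concentration versus time.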

The target in a further data set is T1, PTH1 receptor (Homo sapiens, UniProt Q03431).
T1 construct: expressed in transfected cells; host or cells: HEK293
T1 sequence (Q03431 27-593): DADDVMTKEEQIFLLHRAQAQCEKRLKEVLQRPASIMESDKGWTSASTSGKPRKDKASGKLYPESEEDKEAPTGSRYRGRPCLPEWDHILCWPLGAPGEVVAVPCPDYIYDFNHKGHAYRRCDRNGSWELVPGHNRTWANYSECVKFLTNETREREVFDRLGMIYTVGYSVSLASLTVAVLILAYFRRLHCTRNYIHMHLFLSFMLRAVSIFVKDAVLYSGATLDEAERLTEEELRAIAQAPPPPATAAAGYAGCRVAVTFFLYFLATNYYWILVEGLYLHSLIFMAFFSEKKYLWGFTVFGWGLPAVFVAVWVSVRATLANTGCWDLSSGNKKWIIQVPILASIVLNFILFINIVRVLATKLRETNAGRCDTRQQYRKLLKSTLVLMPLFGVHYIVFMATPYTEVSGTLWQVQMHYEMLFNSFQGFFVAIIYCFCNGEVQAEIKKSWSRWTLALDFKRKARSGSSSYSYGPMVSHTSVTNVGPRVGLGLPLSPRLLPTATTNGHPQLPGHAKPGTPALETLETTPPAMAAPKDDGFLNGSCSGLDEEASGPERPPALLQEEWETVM
In words: Luciferase-based reporter gene assay for cAMP detection (HEK293 cells). The class given is cell-based. The following applies: for potency at the PTH receptor: FIGS. 3A, 3B, luciferase reporter of cAMP production. As to the method:
At the end of the incubation, 50 μL of Steady-Lite Plus (PerkinElmer, Waltham, MA) were added to each well. The plate was shaken briefly, incubated four minutes and light output was measured on an EnSpire Alpha Multi-mode Plate Reader (PerkinElmer, Waltham, MA).

Data set [2] in a line: Rate of model dipeptide cleavage from hexapeptide in PBS (HPLC, LC-MS). The class given is physicochemical. The following applies: for t1/2: cleavage of dipeptide A-B from model hexapeptide in PBS, 37° C., unit not given or result in words; for half-life at 1 mg/ml: buffer. The procedure:
The solution was incubated at 37° C.
The flow rate was 1 ml/min.

Where a SMILES comes first, the peptide text is derived from it. [ ]: non-standard residue; d: D form. The star is where a group is joined. NMeH = CN[C@@H](Cc1c[nH]cn1)C(=O)O; Isobutyryl(2-OH) = CC(C)(O)C(=O)*; Deg = CCC(N)(CC)C(=O)O; Aib = CC(C)(N)C(=O)O

Regarding “SVSEIQLMHNLGKHLNSMERVEWLRKKLQDVHK(γE-COC16H32CO2H)-OH [SEQ ID NO: 74]”, the “effect on serum calcium levels” value in the data set with serum calcium is “increase serum calcium levels”.
The term half-life denotes the time needed for the level to fall by half in the phase considered. Broadly, the EC50 is the concentration at which the effect is half-maximal. Consider `CC[C@H](C)[C@H](NC(=O)[C@H](CCC(=O)O)NC(=O)[C@H](CO)NC(=O)[C@@H](NC(=O)[C@H](CO)NC(=O)CN(C)C(=O)[C@H](N)CCCCNC(=O)CC[C@H](NC(=O)CCCCCCCCCCCCCCCCC(=O)O)C(=O)O)C(C)C)C(=O)N[C@@H](CCC(N)=O)C(=O)N[C@@H](CC(C)C)C(=O)N[C@@H](CCSC)C(=O)N[C@@H](Cc1c[nH]cn1)C(=O)N[C@@H](CC(N)=O)C(=O)N[C@@H](CC(C)C)C(=O)NCC(=O)N[C@@H](CCCCN)C(=O)N[C@@H](Cc1c[nH]cn1)C(=O)N[C@@H](CC(C)C)C(=O)N[C@@H](CC(N)=O)C(=O)N[C@@H](CO)C(=O)N[C@@H](CCSC)C(=O)N[C@@H](CCC(=O)O)C(=O)N[C@@H](CCCNC(=N)N)C(=O)N[C@H](C(=O)N[C@@H](CCC(=O)O)C(=O)N[C@@H](Cc1c[nH]c2ccccc12)C(=O)N[C@@H](CC(C)C)C(=O)N[C@@H](CCCNC(=N)N)C(=O)N[C@@H](CCCCN)C(=O)N[C@@H](CCCCN)C(=O)N[C@@H](CC(C)C)C(=O)N[C@@H](CCC(N)=O)C(=O)N[C@@H](CC(=O)O)C(=O)N[C@H](C(=O)N[C@@H](Cc1c[nH]cn1)C(=O)N[C@@H](CC(N)=O)C(=O)N[C@@H](Cc1ccccc1)C(=O)O)C(C)C)C(C)C` [SEQ ID NO: 45], for which the half-life in data set [1] was 90 h. Moreover, the “potency at the PTH receptor” value at PTH1 receptor is recorded as “decreases the potency”. Moreover, the EC50 at PTH1 receptor (HEK293 cells, PTH1 receptor, cAMP-responsive luciferase, 5 hours, read-out: Potency EC50) amounted to 45.5 nM.
As for “13 (XXSVSEIQLMHNLGKHLNSMERVEWLRKKLQDVHNFX; SITE 1 MISC_FEATURE - Xaa at position 1 is acylated dLys; SITE 2 MISC_FEATURE - Xaa at position 2 is N-methyl Gly; SITE 37 MISC_FEATURE - Xaa at position 37 is an acylated Lys; SITE 37 MISC_FEATURE - C-terminal carboxyl group replaced with an amide; listed as Homo sapiens) [compound 13]”, the t1/2 entry in data set [2] is “No cleavage”.
The molecule `C[C@@H](O)[C@H](NC(=O)CNC(=O)[C@H](CCCNC(=N)N)NC(=O)[C@H](CO)NC(=O)[C@H](Cc1c[nH]cn1)NC(=O)[C@@H]1CCCN1C(=O)C(C)(C)N)C(=O)N[C@@H](Cc1ccccc1)C(N)=O` [compound 14] (H-[Aib]PHSRGTF-NH2) had a half-life at 1 mg/ml in data set [2] of 32 h.
The molecule `C[C@@H](O)[C@H](NC(=O)CNC(=O)[C@H](CCCNC(=N)N)NC(=O)[C@H](CO)NC(=O)[C@H](Cc1c[nH]cn1)NC(=O)[C@H]1CCCN1C(=O)C(C)(C)N)C(=O)N[C@@H](Cc1ccccc1)C(N)=O` [compound 15] (H-[Aib][dP]HSRGTF-NH2) had a half-life at 1 mg/ml in data set [2] of 20 h.
In data set [2], `C[C@H](NC(=O)[C@@H]1CCCN1C(=O)C(C)(C)N)C(=O)N[C@@H](CO)C(=O)N[C@@H](CCCNC(=N)N)C(=O)NCC(=O)N[C@H](C(=O)N[C@@H](Cc1ccccc1)C(N)=O)[C@@H](C)O` [compound 22] (H-[Aib]PASRGTF-NH2) had a half-life at 1 mg/ml of 58 h.
“12 (SVSEIQLMHNLGKHLNSMERVEWLRKKLQDVHNFX; VARIANT 35 MISC_FEATURE - Xaa at position 35 is an acylated Lys; SITE 35 MISC_FEATURE - C-terminal carboxyl group replaced with an amide; listed as Homo sapiens) [compound 12]”: the t1/2 result in data set [2] was “No cleavage”.
As to `CC[C@H](C)[C@H](NC(=O)[C@H](CCC(=O)O)NC(=O)[C@H](CO)NC(=O)[C@@H](NC(=O)[C@H](CO)NC(=O)CN(C)C(=O)[C@H](N)CCCCNC(=O)CC[C@H](NC(=O)CCCCCCCCCCCCCCCCC(=O)O)C(=O)O)C(C)C)C(=O)N[C@@H](CCC(N)=O)C(=O)N[C@@H](CC(C)C)C(=O)N[C@@H](CCSC)C(=O)N[C@@H](Cc1c[nH]cn1)C(=O)N[C@@H](CC(N)=O)C(=O)N[C@@H](CC(C)C)C(=O)NCC(=O)N[C@@H](CCCCN)C(=O)N[C@@H](Cc1c[nH]cn1)C(=O)N[C@@H](CC(C)C)C(=O)N[C@@H](CC(N)=O)C(=O)N[C@@H](CO)C(=O)N[C@@H](CCSC)C(=O)N[C@@H](CCC(=O)O)C(=O)N[C@@H](CCCNC(=N)N)C(=O)N[C@H](C(=O)N[C@@H](CCC(=O)O)C(=O)N[C@@H](Cc1c[nH]c2ccccc12)C(=O)N[C@@H](CC(C)C)C(=O)N[C@@H](CCCNC(=N)N)C(=O)N[C@@H](CCCCN)C(=O)N[C@@H](CCCCN)C(=O)N[C@@H](CC(C)C)C(=O)N[C@@H](CCC(N)=O)C(=O)N[C@@H](CC(=O)O)C(=O)N[C@H](C(=O)N[C@@H](Cc1c[nH]cn1)C(=O)N[C@@H](CC(N)=O)C(=O)N[C@@H](Cc1ccccc1)C(=O)N[C@@H](CCCCNC(=O)CC[C@H](NC(=O)CCCCCCCCCCCCCCCCC(=O)O)C(=O)O)C(N)=O)C(C)C)C(C)C` [SEQ ID NO: 58], the half-life in data set [1] was 73 h. Besides, the “potency at the PTH receptor” value at PTH1 receptor is recorded as “low potency”.
In turn, `C[C@@H](O)[C@H](NC(=O)CNC(=O)[C@H](CCCNC(=N)N)NC(=O)[C@H](CO)NC(=O)[C@H](Cc1c[nH]cn1)NC(=O)[C@@H]1CCCN1C(=O)C(C)(C)O)C(=O)N[C@@H](Cc1ccccc1)C(N)=O` [compound 21] ({Isobutyryl(2-OH)}-PHSRGTF-NH2) showed a half-life at 1 mg/ml in data set [2] of 61 h.
Consider “11 (XXSVSEIQLMHNLGKHLNSMERVEWLRKKLQDVHNF; SITE 1 MISC_FEATURE - Xaa at position 1 is acylated dLys; SITE 2 MISC_FEATURE - Xaa at position 2 is N-methyl Gly; listed as Homo sapiens) [compound 11]”, for which the t1/2 entry in data set [2] is given as “No cleavage”.
In data set [2], `C[C@@H](O)[C@H](NC(=O)CNC(=O)[C@H](CCCNC(=N)N)NC(=O)[C@H](CO)NC(=O)[C@H](Cc1c[nH]cn1)N(C)C(=O)[C@@H]1CCCN1C(=O)C(C)(C)N)C(=O)N[C@@H](Cc1ccccc1)C(N)=O` [compound 23] (H-[Aib]P[NMeH]SRGTF-NH2) gave a half-life at 1 mg/ml of 30 h.
On the same count and under the same terms, the same measure for `CCC(N)(CC)C(=O)N1CCC[C@H]1C(=O)N[C@@H](Cc1c[nH]cn1)C(=O)N[C@@H](CO)C(=O)N[C@@H](CCCNC(=N)N)C(=O)NCC(=O)N[C@H](C(=O)N[C@@H](Cc1ccccc1)C(N)=O)[C@@H](C)O` [compound 20] (H-[Deg]PHSRGTF-NH2): 46 h.
Still for that read-out and setting: the same measure for `C[C@@H](O)[C@H](NC(=O)CNC(=O)[C@H](CCCNC(=N)N)NC(=O)[C@H](CO)NC(=O)[C@@H](Cc1c[nH]cn1)NC(=O)[C@@H]1CCCN1C(=O)C(C)(C)N)C(=O)N[C@@H](Cc1ccccc1)C(N)=O` [compound 16] (H-[Aib]P[dH]SRGTF-NH2): 16 h.
For the molecule “7 (SVSEIQLMHNLGKHLNSMERVEWLRKKLQDVH; listed as Homo sapiens) [compound 7]”, the t1/2 result in data set [2] is “No cleavage”.
